Results reported in paper doi:10.1101/2025.07.15.665002v1 (biorxiv, 2025).
Substitutions are numbered along the chain they refer to. Where two headings read alike, the source gives them in different places.

Tests used:
hMDH2 [1] = target: T1, hMDH2 (Homo sapiens, UniProt P40926); assay: NADH oxidation at […] nm; type: biochemical; details: read-out: % of control activity remaining at 10.0 mM
T1 sequence (P40926 25-338): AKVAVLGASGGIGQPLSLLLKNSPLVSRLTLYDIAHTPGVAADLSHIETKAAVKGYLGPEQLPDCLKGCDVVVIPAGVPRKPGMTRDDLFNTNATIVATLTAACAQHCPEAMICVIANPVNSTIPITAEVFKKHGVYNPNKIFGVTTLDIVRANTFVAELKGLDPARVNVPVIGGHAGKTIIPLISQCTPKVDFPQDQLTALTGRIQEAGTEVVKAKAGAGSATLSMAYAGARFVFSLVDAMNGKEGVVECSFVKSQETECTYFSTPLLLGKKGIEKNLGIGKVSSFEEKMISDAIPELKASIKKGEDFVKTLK

hMDH2 [2] = target: T2, hMDH2 (Homo sapiens, UniProt P40926, H131W); type: binding
T2 sequence (P40926 25-338 H131W): T1 sequence (P40926 25-338) with H107W

hMDH2 [3] = target: T2, hMDH2; type: binding; remark: listed apart in the source
hMDH2 [4] = target: T1, hMDH2; assay: NADH oxidation at […] nm; type: biochemical; details: read-out: % inhibition at 10.0 mM

Structure (SMILES) | remaining activity at 10000 µM (hMDH2 [1]) [%] | Kd (hMDH2 [2]) [mM] | Kd (hMDH2 [3]) [mM] | inhibition at 10000 µM (hMDH2 [4]) [%]
Nc1ncnc2c1ncn2[C@@H]1O[C@H](COP(=O)(O)OP(=O)(O)O)[C@@H](O)[C@H]1O [ADP] | 18.7 | 3.77 ± 0.27 |  | 
O=C(O)CCC(=O)C(=O)O [α-ketoglutarate] |  |  | 10.4 ± 1.45 | 51.7
O=C(O)CC(O)(CC(=O)O)C(=O)O [citrate] | 31 |  |  | 

Other lines, results leading:

remaining activity at 10000 µM (hMDH2 [1]) [%] | Kd (hMDH2 [2]) [mM] | Kd (hMDH2 [3]) [mM] | inhibition at 10000 µM (hMDH2 [4]) [%] | Structure (SMILES)
13.2 | 1.02 ± 0.039 |  |  | NC(=O)c1ccc[n+]([C@@H]2O[C@H](COP(=O)(O)OP(=O)(O)OC[C@H]3O[C@@H](n4cnc5c(N)ncnc54)[C@H](O)[C@@H]3O)[C@@H](O)[C@H]2O)c1 [NAD^+]
29.1 | 9.63 ± 0.68 |  |  | Nc1ncnc2c1ncn2[C@@H]1O[C@H](COP(=O)(O)OP(=O)(O)OP(=O)(O)O)[C@@H](O)[C@H]1O [ATP]
